{
  "source": "patent US20210350875A1",
  "about": "“HIGH THROUGHPUT METHOD AND SYSTEM FOR MAPPING INT[…] DIAGRAMS” (The Trustees of Princeton University, priority 2018, published 2021)",
  "origin": "cited, not measured here",
  "system": "phase separation",
  "conditions": "positive control agent, 10 wells, FIG. 2B",
  "data": [
    {"substance": "hexanediol", "values": [
      {"measurement": "inhibition of phase separation", "value": "fully inhibit phase separation"}
    ]}
  ]
}
